Data as given in patent US8314118B2, “Methods and compositions for treating dry eye” (priority 2009, dated 2012).

Key:
Type in all cases: in vivo, Sprague-Dawley rats
DB rats [1] = test: Schirmer test of tear production in STZ-diabetic (DB) rats after topical treatment
Experimental: (§1) Male Sprague-Dawley rats (˜245 g) were obtained from Charles River Laboratories (Wilmington, Mass.) and housed under standard laboratory conditions. All investigations conformed to the regulations of the ARVO, National Institutes of Health, and the guidelines of the Department of Comparative Medicine of The Pennsylvania State University.
(§2) Briefly, an intraperitoneal (i.p.) injection of 40 mg/kg streptozotocin (STZ, Sigma, St. Louis, Mo.) in ice-cold 0.5 mol/l citrate buffer (pH 4.5) was administered. […] Fifteen animals not receiving STZ, but injected with citrate buffer, were considered Normal.
Tear secretion was measured with Schirmer strips (Alcon Laboratories, Inc., Ft. Worth Tex.). […] The strip wetting length was measured to the nearest millimeter. Five minutes prior to administration of the Schirmer strip, animals received topical Proparacaine Hydrochloride Ophthalmic Solution 0.5% (Akorn, Inc., Buffalo Grove, Ill.).
(§3) Naltrexone hydrochloride (Sigma-Aldrich, Indianapolis, Ind.) was prepared in Vigamox (moxifloxacin hydrochloride ophthalmic solution, Alcon, Inc, Ft. Worth, Tex.) at a 10^−5 M concentration. NTX was given as a single drop (0.05 ml) to the central cornea of the right eye, with the lower eyelid held away from the eye to avoid overflow.
(§4) Insulin or vehicle was applied topically at 0800 hours.
(§5) For body weights and glucose measurements, Student two-tailed t-tests were utilized. With Schirmer tests and aesthesiometer measurements, one-way analysis of variance with Newman-Keuls post tests was employed because measurements were conducted on a random sample of two-thirds of the rats in each group.

DB rats [2] = test: Corneal sensitivity by aesthesiometer in STZ-diabetic (DB) rats after topical treatment; conditions: for reduction in corneal sensitivity from Normal animals: DB NTX group
Experimental: as §1, §2
Corneal sensitivity was determined by an aesthesiometer (Cachet and Bonnet-Aesthesiometer, Boca Raton, Fla.). The values (g/mm^2) were determined directly from the protocol (and conversion table) supplied by the manufacturer.
Measurements of sensitivity were conducted prior to the Schirmer test.
as §3, §4, §5

ocular surface = test: Slit-lamp observations of the ocular surface; conditions: during and after NTX administration
Experimental: To examine general overall morphology and pathology (e.g., corneal edema, scarring), observations with a hand-held slit lamp (Zeiss HSO 10 Hand Slit Lamp, Dublin, Calif.) were conducted.

Normal rats with Dry Eye = test: Schirmer test of tear production in Normal rats with dry eye or "wet" eye
Experimental: FIG. 7. Tear production of Normal rats with Dry Eye (upper panel) and “Wet” eye (lower panel). Animals were measured at baseline, and given 1 drop of topical 10^−6 M naltrexone hydrochloride (NTX). The horizontal black line represents mean baseline for comparisons. Data are expressed as mean (SEM) for 7 rats per group at each time point except 48 hr wherein n=3 rats.
Tear secretion was measured with Schirmer strips (Alcon Laboratories, Inc., Ft. Worth Tex.). A standard 17 mm long Schirmer strip was inserted into the lower cul-de-sac for 1 min. The strip wetting length was measured to the nearest millimeter. Five minutes prior to administration of the Schirmer strip, animals received topical Proparacaine Hydrochloride Ophthalmic Solution 0.5% (Akorn, Inc., Buffalo Grove, Ill.). Testing began 1 hour after the last drop of NTX or vehicle was administered, and continued every 24 hours thereafter.
Sprague-Dawley rats, males of 15-22 weeks of age, were tested for dry eye and therapeutic effects of opioid antagonists. […] All of these measures used a test called the Schirmer Test, as described in Example 1 (the same test used for humans).

[3] = Normal rats with dry eye, one drop of NTX 10^−6 M

INS: Bovine insulin (Sigma-Aldrich) prepared in Vigamox, utilized at a concentration of 1 U
decrease of Schirmer score from Normal rats (DB rats [1]; DB INS group, at 1, 24 and 48 hour time points): 35-58% | effect on tear production (DB rats [1]; DB rats, 1 drop of topical INS (1 U)): no effect | corneal sensitivity compared with Normal animals (DB rats [2]; DB rats, 1 drop of topical INS, 1, 24 and 48 h): did not differ from the Normal animals

O=C1CC[C@@]2(O)[C@H]3Cc4ccc(O)c5c4[C@@]2(CCN3CC2CC2)[C@H]1O5 [NTX, 17-(cyclopropylmethyl)-4,5α-epoxy-3,14-dihydroxymorphinan-6-one]
reduction of tear production from Normal animals (DB rats [1]; DB NTX group, 96 hours after termination of 1 or 5 days of NTX q.i.d.): 22-59% | time to restoration of tear secretion (DB rats [1]; DB rats, 1 drop of topical NTX 10^−5 M in Vigamox): ≤ 1 h | time for which Schirmer scores were comparable to Normal rats (DB rats [1]; DB rats, NTX q.i.d. for 1 or 5 days, from 1 hour after termination of drug exposure): at least 3 days | time for which tear production was similar to Normal animals (DB rats [1]; DB rats, after 1 drop of NTX): at least 48 hours | duration of therapeutic effect (DB rats [1]; four drops (10^−6 M) over a twelve-hour period): at least 72 hours | duration of effect on dry eye (DB rats [1]; only one daily topical application): more than 2 days | abnormalities of the ocular surface on slit-lamp examination (ocular surface): did not reveal any abnormalities | change in moisture of animals with "wet" eye (Normal rats with Dry Eye; Normal rats with "wet" eye, one drop of NTX): no change in moisture | persistence of "wet" eye (Normal rats with Dry Eye; [3]): maintained at 24 and 48 hr | time of return to dry eye (Normal rats with Dry Eye; [3]): ≤ 72 h | time to reversal of dry eye (Normal rats with Dry Eye; Normal rats with dry eye, one drop of NTX 10^−6 M in VIGAMOX): within an hour | duration of therapeutic effect (Normal rats with Dry Eye; one to two drops (10^−6 M)): 48 h | time to reversal of dry eye conditions (Normal rats with Dry Eye; one to two drops (10^−6 M)): within an hour or so | reduction in corneal sensitivity from Normal animals (DB rats [2]; 120 hours after termination of 1 day of NTX q.i.d.): 1.8 fold | reduction in corneal sensitivity from Normal animals (DB rats [2]; 192 hours after termination of 5 day NTX q.i.d.): 1.9 fold | reduction in corneal sensitivity from Normal animals (DB rats [2]; 216 hours after termination of 5 day NTX q.i.d.): 1.7 fold | time for which corneal sensitivity stayed comparable to Normal (DB rats [2]; DB rats, 1 drop of NTX, entire period of the experiment): 96 h | time to restoration of corneal sensitivity (DB rats [2]; DB rats, 1 drop of topical NTX): ≤ 1 h | time for which corneal sensitivity scores were comparable to Normal rats (DB rats [2]; DB rats, NTX q.i.d. for 1 or 5 days, from 1 h after termination of drug exposure): at least 4 days
